US20100041892A1, “Therapeutic agent for diabetes” (priority 2005, published 2010)

Experiments:
PPARγ-RXRα heterodimer = molecular target: T1, PPARγ-RXRα heterodimer (Homo sapiens, UniProt P37231); test: PPARγ-RXRα heterodimer ligand activity (luciferase reporter, PPARγ:RXRα:4ERPP/CHO-K1 cells); assay type: cell-based; settings: concentration showing 50% of the maximum luciferase induction rate; CHO-K1 reporter cells, one day incubation
T1 construct: expressed in transfected cells; host or cells: CHO-K1 (PPARγ:RXRα:4ERPP/CHO-K1)
T1 sequence (P37231 1-477 isoform P37231-2): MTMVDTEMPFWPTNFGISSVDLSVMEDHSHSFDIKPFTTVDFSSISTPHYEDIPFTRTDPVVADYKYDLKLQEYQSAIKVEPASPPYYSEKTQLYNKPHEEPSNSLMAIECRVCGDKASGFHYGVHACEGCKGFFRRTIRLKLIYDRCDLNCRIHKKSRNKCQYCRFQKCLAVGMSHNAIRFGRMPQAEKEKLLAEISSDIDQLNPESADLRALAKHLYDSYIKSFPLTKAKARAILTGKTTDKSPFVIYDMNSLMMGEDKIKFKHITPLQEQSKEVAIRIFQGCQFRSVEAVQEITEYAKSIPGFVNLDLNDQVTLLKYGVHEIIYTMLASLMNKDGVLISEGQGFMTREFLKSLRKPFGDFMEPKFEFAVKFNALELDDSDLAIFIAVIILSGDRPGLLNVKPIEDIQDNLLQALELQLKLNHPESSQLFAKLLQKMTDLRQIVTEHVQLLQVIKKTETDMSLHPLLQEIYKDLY
T1 sequence (P19793 1-462 partner): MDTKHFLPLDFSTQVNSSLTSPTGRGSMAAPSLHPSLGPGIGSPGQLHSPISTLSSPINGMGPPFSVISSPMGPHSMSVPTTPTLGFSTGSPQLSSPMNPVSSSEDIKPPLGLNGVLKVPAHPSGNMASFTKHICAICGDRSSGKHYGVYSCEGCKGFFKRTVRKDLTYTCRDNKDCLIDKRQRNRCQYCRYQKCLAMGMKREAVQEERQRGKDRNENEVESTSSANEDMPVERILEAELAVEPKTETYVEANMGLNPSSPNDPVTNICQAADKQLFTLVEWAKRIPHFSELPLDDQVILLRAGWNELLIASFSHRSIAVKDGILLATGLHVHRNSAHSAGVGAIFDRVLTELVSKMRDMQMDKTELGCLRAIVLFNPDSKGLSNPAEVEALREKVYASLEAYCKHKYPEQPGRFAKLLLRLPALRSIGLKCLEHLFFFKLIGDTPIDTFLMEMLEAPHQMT
Protocol: The PPARγ:RXRα:4ERPP/CHO-K1 cells described in WO03/099793 were cultured in a Ham F12 medium [manufactured by Life Technologies, Inc., US] containing 10% calf fetal serum [manufactured by Life Technologies, Inc., US], sown in a 96-well white plate (manufactured by Corning Coster Corporation, US] at 1×10^4 cells/well, and incubated overnight in a carbon dioxide gas incubator at 37° C.
Then, the medium was removed from the 96 well white plate, 45 μl of Ham F12-medium containing 0.1% fatty acid-free bovine serum albumin (BSA) and a test compound (5 μl) were added, and the cells were incubated for one day in a carbon dioxide gas incubator at 37° C. The medium was removed, 20 μl of PicaGene 7.5 (manufactured by Wako Pure Chemical Industries, Ltd.) 2-fold diluted with HBSS (HANKS' BALANCED SALT SOLUTION) [manufactured by BIO WHITTAKER, US] was added. After stirring, the luciferase activity was determined using the 1420 ARVO Multilabel Counter [manufactured by PerkinElmer, US].
The induction rate was calculated from the luciferase activity of each test compound based on the luciferase activity of the test compound non-administration group as 1. The test compound concentration and the induction rate were analyzed by PRISM [manufactured by GraphPad Software, Inc., US] to calculate EC50 value (compound concentration showing 50% of the maximum value of induction rate) of the test compound.

SMILES	EC50 (PPARγ-RXRα heterodimer)	melting point
CCCCCS(=O)(=O)NC(=O)/C=C/c1ccc(OC(C)C)cc1Oc1ncc(C(F)(F)F)cc1Cl [Example 13, (2E)-3-[2-{[3-chloro-5-(trifluoromethyl)pyridin-2-yl]oxy}-4-isopropoxyphenyl]-N-(pentylsulfonyl)acrylamide]	26 nM	
COCCOc1ccc(CCCOC(=O)NS(=O)(=O)c2ccc(Cl)cc2)c(Oc2ncc(C(F)(F)F)cc2Cl)c1 [Example 32, 3-[2-{[3-chloro-5-(trifluoromethyl)pyridin-2-yl]oxy}-4-(2-methoxyethoxy)phenyl]propyl [(4 chlorophenyl)sulfonyl]carbamate]	6.6 nM	147 to 150 °C
CCCCCS(=O)(=O)NC(=O)CCc1ccc(OCC(=O)N(CC)CC)cc1Oc1ncc(C(F)(F)F)cc1Cl [Example 44, 3-{2-{[3-chloro-5-(trifluoromethyl)pyridin-2-yl]oxy}-4-[2-(diethylamino)-2-oxoethoxy]phenyl}-N-(pentylsulfonyl)propanamide]	6.9 nM	
CCCCCS(=O)(=O)NC(=O)CCc1ccc(OCCN2CCCC2=O)cc1Oc1ncc(C(F)(F)F)cc1Cl [Example 47, 3-{2-{[3-chloro-5-(trifluoromethyl)pyridin-2-yl]oxy}-4-[2-(2-oxopyrrolidin-1-yl)ethoxy]phenyl}-N-(pentylsulfonyl)propanamide]	3.4 nM	
COCCOc1ccc(CCCOC(=O)NCC2CC2)c(Oc2ncc(C(F)(F)F)cc2Cl)c1 [Example 51, 3-[2-{[3-chloro-5-(trifluoromethyl)pyridin-2-yl]oxy}-4-(2-methoxyethoxy)phenyl]propyl (cyclopropylmethyl)carbamate]	20 nM	87.8 to 87.9 °C
CCCCCS(=O)(=O)NC(=O)OCc1ccc(OS(=O)(=O)CCC)cc1Oc1ncc(C(F)(F)F)cc1Cl [Example 64, 3-{[3-chloro-5-(trifluoromethyl)pyridin-2-yl]oxy}-4-[({[(pentylsulfonyl)amino]carbonyl}oxy)methyl]phenyl propane-1-sulfonate]	8.7 nM	86 to 89 °C
CCCCCS(=O)(=O)NC(=O)/C=C/c1cc(OC(C)C)nn1Cc1ccc(C(F)(F)F)cc1Cl [Example 111, (2E)-3-{1-[2-chloro-4-(trifluoromethyl)benzyl]-3-isopropoxy-1H-pyrazol-5-yl}-N-(pentylsulfonyl)acrylamide]	9.3 nM	
CCCCCS(=O)(=O)NC(=O)CCc1ccc(OCCOC)cc1OCc1nc(-c2ccccc2)oc1C [Example 173, 3-{4-(2-methoxyethoxy)-2-[(5-methyl-2-phenyl-1,3-oxazol-4-yl)methoxy]phenyl}-N-(pentylsulfonyl)propanamide]	9.8 nM	95.9 to 96.7 °C
CCCCCS(=O)(=O)NC(=O)/C(C)=C/c1ccc(OCCCOC)cc1Oc1ncc(Cl)cc1Cl [Example 190, (2E)-3-[2-[(3,5-dichloropyridin-2-yl)oxy]-4-(3-methoxypropoxy)phenyl]-2-methyl-N-(pentylsulfonyl)acrylamide]	15 nM	116 to 116.8 °C
CCCCCS(=O)(=O)NC(=O)/C=C/c1cc(OC(C)C)nn1Cc1ncc(C(F)(F)F)cc1Cl [Example 199, (2E)-3-(1-{[3-chloro-5-(trifluoromethyl)pyridin-2-yl]methyl}-3-isopropoxy-1H-pyrazol-5-yl)-N-(pentylsulfonyl)acrylamide]	13 nM	
CCCCCS(=O)(=O)NC(=O)/C=C/c1ccc(OCCC(C)(C)O)cc1Oc1ncc(C(F)(F)F)cc1Cl [Example 248, (2E)-3-[2-{[3-chloro-5-(trifluoromethyl)pyridin-2-yl]oxy}-4-(3-hydroxy-3-methylbutoxy)phenyl]-N-(pentylsulfonyl)acrylamide]	18 nM	135.5 to 136 °C

Continued, values first:

EC50 (PPARγ-RXRα heterodimer)	melting point	SMILES
2.3 nM		CCCCCS(=O)(=O)NC(=O)C(C)Cc1ccc(OCCOC)cc1Oc1ncc(C(F)(F)F)cc1Cl (stereo not shown) [Example 209, 3-[2-{[3-chloro-5-(trifluoromethyl)pyridin-2-yl]oxy}-4-(2-methoxyethoxy)phenyl]-2-methyl-N-(pentylsulfonyl)propanamide]
55 nM	176.8 to 177.2 °C	C/C(=C\c1ccc(OC(C)C)cc1Oc1ncc(C(F)(F)F)cc1Cl)C(=O)NS(=O)(=O)NC1CCC(C)CC1 (stereo not shown) [Example 223, (2E)-3-(2-{[3-chloro-5-(trifluoromethyl)pyridin-2-yl]oxy}-4-isopropoxyphenyl)-2-methyl-N-{[(4-methylcyclohexyl)amino]sulfonyl}acrylamide]
16 nM	137.8 to 138.5 °C	CCCCCNS(=O)(=O)NC(=O)/C(C)=C/c1ccc(OC(C)C)cc1Oc1ncc(C(F)(F)F)cc1Cl [Example 224, (2E)-3-(2-{[3-chloro-5-(trifluoromethyl)pyridin-2-yl]oxy}-4-isopropoxyphenyl)-2-methyl-N-[(pentylamino)sulfonyl]acrylamide]
16 nM	130 to 131 °C	C/C(=C\c1ccc(OC(C)C)cc1Oc1ncc(C(F)(F)F)cc1Cl)C(=O)NS(=O)(=O)NCCc1cccs1 [Example 225, (2E)-3-(2-{[3-chloro-5-(trifluoromethyl)pyridin-2-yl]oxy}-4-isopropoxyphenyl)-2-methyl-N-({[2-(2-thienyl)ethyl]amino}sulfonyl)acrylamide]
8.5 nM	152.5 to 153 °C	CCCCCNS(=O)(=O)NC(=O)/C(C)=C/c1ccc(OCCOC)cc1Oc1ncc(C(F)(F)F)cc1Cl [Example 226, (2E)-3-[2-{[3-chloro-5-(trifluoromethyl)pyridin-2-yl]oxy}-4-(2-methoxyethoxy)phenyl]-2-methyl-N-[(pentylamino)sulfonyl]acrylamide]
7.4 nM		CCCCCS(=O)(=O)NC(=O)/C=C/c1ccc(OCCCOC)cc1Oc1ncc(C(F)(F)F)cc1Cl [Example 251, (2E)-3-[2-{[3-chloro-5-(trifluoromethyl)pyridin-2-yl]oxy}-4-(3-methoxypropoxy)phenyl]-N-(pentylsulfonyl)acrylamide]
3.9 nM	95 to 95.8 °C	CCCCCS(=O)(=O)NC(=O)CCc1ccc(OCCCOCCOC)cc1Oc1ncc(C(F)(F)F)cc1Cl [Example 255, 3-{2-{[3-chloro-5-(trifluoromethyl)pyridin-2-yl]oxy}-4-[3-(2-methoxyethoxy)propoxy]phenyl}-N-(pentylsulfonyl)propanamide]
13 nM	81 to 83 °C	CCCCCS(=O)(=O)NC(=O)/C=C/c1ccc(OCCOCCOC)cc1Oc1ncc(C(F)(F)F)cc1Cl [Example 256, (2E)-3-{2-{[3-chloro-5-(trifluoromethyl)pyridin-2-yl]oxy}-4-[2-(2-methoxyethoxy)ethoxy]phenyl}-N-(pentylsulfonyl)acrylamide]
4.7 nM		COCCOc1ccc(CCCOC(=O)NS(=O)(=O)N2Cc3ccccc3C2)c(Oc2ncc(C(F)(F)F)cc2Cl)c1 [Example 371, 3-[2-{[3-chloro-5-(trifluoromethyl)pyridin-2-yl]oxy}-4-(2-methoxyethoxy)phenyl]propyl (1,3-dihydro-2H-isoindol-2-ylsulfonyl)carbamate]
22 nM		COCCOc1ccc(CCCOC(=O)NS(=O)(=O)NCCc2ccccn2)c(Oc2ncc(Cl)cc2Cl)c1 [Example 427, 3-[2-[(3,5-dichloropyridin-2-yl)oxy]-4-(2-methoxyethoxy)phenyl]propyl {[(2-pyridin-2-ylethyl)amino]sulfonyl}carbamate]
15 nM		CCCCCS(=O)(=O)NC(=O)/C=C/c1ccc(OCCCC#N)cc1Oc1ncc(C(F)(F)F)cc1Cl [Example 451, (2E)-3-[2-{[3-chloro-5-(trifluoromethyl)pyridin-2-yl]oxy}-4-(3-cyanopropoxy)phenyl]-N-(pentylsulfonyl)acrylamide]
